In patent US20190105337A1, “METHODS OF TREATING BACTERIAL INFECTIONS” (priority 2015, published 2019):
In brackets after ≈: the same amount, converted by molar mass. Where two headings read alike, the source gives them in different places.

Experiments:
[1] = Example 2: treatment emergent adverse events, single dose phase; assay type: in vivo, human; settings: Pooled Meropenem alone
Protocol: The combination of both drugs was administered on day 7. All drugs were infused over 3 hours. Plasma and urine samples were obtained and assayed using validated HPLC/MS methods.
No subjects discontinued due to AEs and no SAEs were observed.

clinical = settings: human, in vivo
P. aeruginosa strains = test: MIC by broth microdilution (CLSI), P. aeruginosa strains; assay type: cell-based; settings: Pseudomonas aeruginosa
[2] = cited from earlier work

## C[C@@H](O)[C@H]1C(=O)N2C(C(=O)O)=C(S[C@@H]3CN[C@H](C(=O)N(C)C)C3)[C@H](C)[C@H]12 [meropenem, Meropenem]
[1]
  Headache, %: 37%
  Infusion site pain, %: 10%
  PK catheter site hematoma, %: 21%
  PK catheter site pain, %: 10%
  Subjects with TEAEs, %: 95%
clinical; Meropenem exposure (AUC)
  AUC: 211 µg·h/mL
clinical; weight adjusted clearance (Cl)
  clearance: 2.33 mL/min/kg
P. aeruginosa strains; P. aeruginosa PAM3210, read-out: MIC
  MIC: 2 µg/mL (≈ 5.22 µM)
P. aeruginosa strains; P. aeruginosa PAM3353, read-out: MIC
  MIC: 8 µg/mL (≈ 20.9 µM)
P. aeruginosa strains; P. aeruginosa PAM3377, read-out: MIC
  MIC: 4 to 8 µg/mL (≈ 10.4 to 20.9 µM)
P. aeruginosa strains; read-out: Meropenem (w/ 8 mg/L Compound I) MIC, P. aeruginosa PAM3210, w/ 8 mg/L Compound I
  MIC: 2 µg/mL (≈ 5.22 µM)
P. aeruginosa strains; read-out: Meropenem (w/ 8 mg/L Compound I) MIC, P. aeruginosa PAM3353, w/ 8 mg/L Compound I
  MIC: 8 µg/mL (≈ 20.9 µM)
P. aeruginosa strains; read-out: Meropenem (w/ 8 mg/L Compound I) MIC, P. aeruginosa PAM3377, w/ 8 mg/L Compound I
  MIC: 4 to 8 µg/mL (≈ 10.4 to 20.9 µM)
P. aeruginosa strains; read-out: Meropenem MIC, P. aeruginosa PAM3210
  MIC: 2 µg/mL (≈ 5.22 µM)
P. aeruginosa strains; read-out: Meropenem MIC, P. aeruginosa PAM3353
  MIC: 8 µg/mL (≈ 20.9 µM)
P. aeruginosa strains; read-out: Meropenem MIC, P. aeruginosa PAM3377
  MIC: 4 to 8 µg/mL (≈ 10.4 to 20.9 µM)
[2]; 500 mg dose, 1 hour
  mean meropenem ELF concentration: 5.3 µg/mL
[2]; 500 mg dose, 2 hours
  mean meropenem ELF concentration: 2.7 µg/mL
[2]; 500 mg dose, 3 hours
  mean meropenem ELF concentration: 1.9 µg/mL
[2]; 500 mg dose, 5 hours
  mean meropenem ELF concentration: 0.7 µg/mL
[2]; 500 mg dose, 8 hours
  mean meropenem ELF concentration: 0.2 µg/mL
[2]; 500 mg dose
  intrapulmonary penetration based on AUC0-8 of ELF and total plasma: approximately 43%
[2]; 1 gram dose, 1 hour
  mean meropenem ELF concentration: 7.7 µg/mL
[2]; 1 gram dose, 2 hours
  mean meropenem ELF concentration: 4.0 µg/mL
[2]; 1 gram dose, 3 hours
  mean meropenem ELF concentration: 1.7 µg/mL
[2]; 1 gram dose, 5 hours
  mean meropenem ELF concentration: 0.8 µg/mL
[2]; 1 gram dose, 8 hours
  mean meropenem ELF concentration: 0.03 µg/mL
[2]; 1 gram dose
  intrapulmonary penetration based on AUC0-8 of ELF and total plasma: ~28%
[2]; 2 gram dose, 1-hour sampling time
  mean meropenem ELF concentration: 2.9 µg/mL
[2]; 2 gram dose, 3-hour sampling time
  mean meropenem ELF concentration: 2.8 µg/mL
